Test results: ChEMBL document CHEMBL1909046, “DrugMatrix in vitro pharmacology data”

Key:
[1] = biological target: T1, Alpha-1B adrenergic receptor (Rattus norvegicus, UniProt P15823); experiment: DRUGMATRIX: Alpha-1B adrenergic receptor radioligand binding (ligand: prazosin); type: cell membranes, Wistar, Liver, Membrane; conditions: Not Active = under 50% inhibition at 10 µM
T1 sequence (P15823 whole entry): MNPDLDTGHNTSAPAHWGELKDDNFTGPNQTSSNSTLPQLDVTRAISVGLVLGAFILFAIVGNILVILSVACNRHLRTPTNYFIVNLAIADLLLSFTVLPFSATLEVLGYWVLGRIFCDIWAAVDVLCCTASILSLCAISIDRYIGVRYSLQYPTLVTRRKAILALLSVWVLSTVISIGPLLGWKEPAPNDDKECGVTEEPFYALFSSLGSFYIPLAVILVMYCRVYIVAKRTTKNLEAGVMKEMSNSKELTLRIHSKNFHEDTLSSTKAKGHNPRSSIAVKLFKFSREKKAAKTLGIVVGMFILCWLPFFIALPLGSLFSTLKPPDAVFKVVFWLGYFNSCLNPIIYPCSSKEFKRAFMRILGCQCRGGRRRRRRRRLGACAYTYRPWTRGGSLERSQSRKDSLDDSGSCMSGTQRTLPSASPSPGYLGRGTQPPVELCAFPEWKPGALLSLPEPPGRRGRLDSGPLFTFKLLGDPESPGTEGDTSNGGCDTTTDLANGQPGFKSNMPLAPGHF

Vasopressin V1a receptor = Vasopressin V1a receptor (Homo sapiens, UniProt P37288); type: cell membranes, Membrane; conditions: hek293; note: in other assays of this panel Not Active means under 50% inhibition at 10 µM
[2] = DRUGMATRIX: Glutamate, AMPA radioligand binding (ligand: [3H] AMPA); type: cell membranes, Rattus norvegicus, Wistar, Cerebral cortex, Membrane; conditions: Not Active = under 50% inhibition at 10 µM
[3] = DRUGMATRIX: GABAA, Chloride Channel, TBOB radioligand binding (ligand: [3H] TBOB); type: cell membranes, Rattus norvegicus, Wistar, Cerebral cortex, Membrane; conditions: Not Active = under 50% inhibition at 10 µM
[4] = biological target: T2, Neuropeptide Y receptor type 2 (Homo sapiens, UniProt P49146); type: cell membranes, Membrane; conditions: kan-ts; note: in other assays of this panel Not Active means under 50% inhibition at 10 µM
T2 sequence (P49146 whole entry): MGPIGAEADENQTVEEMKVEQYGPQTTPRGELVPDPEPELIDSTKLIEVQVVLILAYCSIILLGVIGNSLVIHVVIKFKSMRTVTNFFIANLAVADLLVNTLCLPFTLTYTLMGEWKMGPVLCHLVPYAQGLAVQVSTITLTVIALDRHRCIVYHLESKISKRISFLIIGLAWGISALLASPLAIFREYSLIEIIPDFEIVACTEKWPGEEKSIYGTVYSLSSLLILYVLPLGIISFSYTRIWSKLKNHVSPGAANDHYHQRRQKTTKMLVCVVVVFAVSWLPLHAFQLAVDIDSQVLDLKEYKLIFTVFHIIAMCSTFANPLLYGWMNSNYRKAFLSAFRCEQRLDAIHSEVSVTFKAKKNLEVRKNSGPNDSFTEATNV

[5] = biological target: 5-hydroxytryptamine receptor 2B (Homo sapiens, UniProt P41595); type: cell membranes, CHO-K1, Membrane; conditions: cho-k1; note: in other assays of this panel Not Active means under 50% inhibition at 10 µM
Glucocorticoid receptor = biological target: T3, Glucocorticoid receptor (Homo sapiens, UniProt P04150); conditions: hela s3; note: in other assays of this panel Not Active means under 50% inhibition at 10 µM
T3 sequence (P04150 whole entry): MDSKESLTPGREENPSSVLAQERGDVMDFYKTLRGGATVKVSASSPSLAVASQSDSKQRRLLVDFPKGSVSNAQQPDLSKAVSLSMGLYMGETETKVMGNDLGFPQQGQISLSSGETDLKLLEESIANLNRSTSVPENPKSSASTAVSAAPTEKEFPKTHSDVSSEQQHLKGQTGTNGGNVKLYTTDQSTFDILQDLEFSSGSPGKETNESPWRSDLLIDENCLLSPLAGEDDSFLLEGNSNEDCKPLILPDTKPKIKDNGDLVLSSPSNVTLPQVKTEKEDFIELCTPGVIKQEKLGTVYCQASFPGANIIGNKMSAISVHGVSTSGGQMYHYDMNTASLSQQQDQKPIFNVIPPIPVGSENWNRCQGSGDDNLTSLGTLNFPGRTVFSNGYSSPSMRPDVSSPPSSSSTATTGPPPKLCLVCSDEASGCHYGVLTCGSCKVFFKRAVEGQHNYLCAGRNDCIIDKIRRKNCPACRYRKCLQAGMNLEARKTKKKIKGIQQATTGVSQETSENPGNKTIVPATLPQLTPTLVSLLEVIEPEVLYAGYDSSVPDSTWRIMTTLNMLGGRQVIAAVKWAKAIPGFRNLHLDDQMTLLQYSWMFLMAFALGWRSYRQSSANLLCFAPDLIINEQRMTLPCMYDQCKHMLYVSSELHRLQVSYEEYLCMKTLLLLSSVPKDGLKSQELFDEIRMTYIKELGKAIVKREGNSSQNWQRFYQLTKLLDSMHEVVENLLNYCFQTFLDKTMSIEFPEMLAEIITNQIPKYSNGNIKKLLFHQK

[6] = biological target: Tyrosine-protein kinase Lck (Homo sapiens, UniProt P06239); experiment: DRUGMATRIX: Protein Tyrosine Kinase, LCK enzyme inhibition (substrate: Poly(Glu:Tyr)); type: cell-based, Insect cells; conditions: insect cells; Not Active = under 50% inhibition at 10 µM
[7] = biological target: Receptor tyrosine-protein kinase erbB-2 (Homo sapiens, UniProt P04626); experiment: biochemical; type: cell-based, Insect cells; conditions: insect cells
[8] = biological target: T4, Alpha-1D adrenergic receptor (Homo sapiens, UniProt P25100); type: cell membranes, HEK293, Membrane; conditions: hek293; note: in other assays of this panel Not Active means under 50% inhibition at 10 µM
T4 sequence (P25100 whole entry): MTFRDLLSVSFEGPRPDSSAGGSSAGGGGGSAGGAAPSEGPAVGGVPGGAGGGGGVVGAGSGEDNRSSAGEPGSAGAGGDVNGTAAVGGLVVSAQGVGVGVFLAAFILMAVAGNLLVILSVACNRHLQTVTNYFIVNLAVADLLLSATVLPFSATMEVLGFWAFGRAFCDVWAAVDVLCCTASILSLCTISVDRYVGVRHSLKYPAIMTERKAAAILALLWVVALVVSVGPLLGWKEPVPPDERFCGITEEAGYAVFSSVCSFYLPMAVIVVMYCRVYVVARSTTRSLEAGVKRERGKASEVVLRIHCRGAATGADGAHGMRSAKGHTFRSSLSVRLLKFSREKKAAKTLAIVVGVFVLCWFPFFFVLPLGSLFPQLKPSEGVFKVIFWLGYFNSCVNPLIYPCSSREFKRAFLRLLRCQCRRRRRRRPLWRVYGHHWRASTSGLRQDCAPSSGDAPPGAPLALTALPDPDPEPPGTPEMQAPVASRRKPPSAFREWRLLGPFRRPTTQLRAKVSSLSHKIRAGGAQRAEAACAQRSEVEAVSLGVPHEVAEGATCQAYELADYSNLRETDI

[9] = biological target: Mitogen-activated protein kinase 3 (Homo sapiens, UniProt P27361); experiment: DRUGMATRIX: Protein Serine/Threonine Kinase, ERK1 enzyme inhibition (substrate: Myelin Basic Protein); set-up: species or system Escherichia coli; conditions: Not Active = under 50% inhibition at 10 µM
[10] = biological target: Beta-3 adrenergic receptor (Homo sapiens, UniProt P13945); experiment: DRUGMATRIX: Adrenergic beta3 radioligand binding (ligand: [125I] Cyanopindolol); type: cell membranes, HEK293, Membrane; conditions: hek293; Not Active = under 50% inhibition at 10 µM
Sequence of Beta-3 adrenergic receptor (P13945 whole entry): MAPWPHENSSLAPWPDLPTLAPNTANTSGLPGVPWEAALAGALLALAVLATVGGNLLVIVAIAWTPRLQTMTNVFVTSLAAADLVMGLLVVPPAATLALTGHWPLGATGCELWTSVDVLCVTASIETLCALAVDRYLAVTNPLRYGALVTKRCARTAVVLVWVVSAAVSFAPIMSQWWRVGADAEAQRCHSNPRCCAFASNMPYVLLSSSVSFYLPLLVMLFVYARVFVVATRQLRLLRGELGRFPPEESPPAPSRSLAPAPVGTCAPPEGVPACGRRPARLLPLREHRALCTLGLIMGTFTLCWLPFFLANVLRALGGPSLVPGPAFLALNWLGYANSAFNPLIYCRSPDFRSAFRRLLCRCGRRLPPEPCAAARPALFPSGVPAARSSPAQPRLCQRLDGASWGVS

Sequence of 5-hydroxytryptamine receptor 2B (P41595 whole entry): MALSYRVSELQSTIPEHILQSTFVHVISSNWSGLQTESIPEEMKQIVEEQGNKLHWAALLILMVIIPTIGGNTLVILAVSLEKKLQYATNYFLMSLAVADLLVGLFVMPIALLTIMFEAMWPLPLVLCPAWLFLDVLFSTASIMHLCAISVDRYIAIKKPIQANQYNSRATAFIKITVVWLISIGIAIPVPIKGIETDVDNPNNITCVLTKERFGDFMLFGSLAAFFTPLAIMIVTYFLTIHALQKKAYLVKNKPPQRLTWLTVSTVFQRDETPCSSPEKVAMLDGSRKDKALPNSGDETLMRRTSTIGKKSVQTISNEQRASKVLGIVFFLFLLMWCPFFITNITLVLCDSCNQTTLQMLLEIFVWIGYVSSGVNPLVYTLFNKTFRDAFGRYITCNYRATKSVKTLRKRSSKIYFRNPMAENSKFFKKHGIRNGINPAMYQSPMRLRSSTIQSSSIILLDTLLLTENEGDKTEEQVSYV
Sequence of Mitogen-activated protein kinase 3 (P27361 whole entry): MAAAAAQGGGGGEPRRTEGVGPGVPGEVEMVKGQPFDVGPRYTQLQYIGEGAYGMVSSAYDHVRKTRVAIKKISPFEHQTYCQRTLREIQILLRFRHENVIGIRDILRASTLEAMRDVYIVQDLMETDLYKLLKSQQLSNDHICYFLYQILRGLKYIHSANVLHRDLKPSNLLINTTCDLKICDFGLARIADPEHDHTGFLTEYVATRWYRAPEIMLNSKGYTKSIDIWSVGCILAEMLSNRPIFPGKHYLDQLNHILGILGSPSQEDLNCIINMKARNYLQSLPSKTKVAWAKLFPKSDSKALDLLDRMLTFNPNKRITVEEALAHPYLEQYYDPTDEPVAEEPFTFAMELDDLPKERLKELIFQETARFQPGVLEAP
Sequence of Receptor tyrosine-protein kinase erbB-2 (P04626 whole entry): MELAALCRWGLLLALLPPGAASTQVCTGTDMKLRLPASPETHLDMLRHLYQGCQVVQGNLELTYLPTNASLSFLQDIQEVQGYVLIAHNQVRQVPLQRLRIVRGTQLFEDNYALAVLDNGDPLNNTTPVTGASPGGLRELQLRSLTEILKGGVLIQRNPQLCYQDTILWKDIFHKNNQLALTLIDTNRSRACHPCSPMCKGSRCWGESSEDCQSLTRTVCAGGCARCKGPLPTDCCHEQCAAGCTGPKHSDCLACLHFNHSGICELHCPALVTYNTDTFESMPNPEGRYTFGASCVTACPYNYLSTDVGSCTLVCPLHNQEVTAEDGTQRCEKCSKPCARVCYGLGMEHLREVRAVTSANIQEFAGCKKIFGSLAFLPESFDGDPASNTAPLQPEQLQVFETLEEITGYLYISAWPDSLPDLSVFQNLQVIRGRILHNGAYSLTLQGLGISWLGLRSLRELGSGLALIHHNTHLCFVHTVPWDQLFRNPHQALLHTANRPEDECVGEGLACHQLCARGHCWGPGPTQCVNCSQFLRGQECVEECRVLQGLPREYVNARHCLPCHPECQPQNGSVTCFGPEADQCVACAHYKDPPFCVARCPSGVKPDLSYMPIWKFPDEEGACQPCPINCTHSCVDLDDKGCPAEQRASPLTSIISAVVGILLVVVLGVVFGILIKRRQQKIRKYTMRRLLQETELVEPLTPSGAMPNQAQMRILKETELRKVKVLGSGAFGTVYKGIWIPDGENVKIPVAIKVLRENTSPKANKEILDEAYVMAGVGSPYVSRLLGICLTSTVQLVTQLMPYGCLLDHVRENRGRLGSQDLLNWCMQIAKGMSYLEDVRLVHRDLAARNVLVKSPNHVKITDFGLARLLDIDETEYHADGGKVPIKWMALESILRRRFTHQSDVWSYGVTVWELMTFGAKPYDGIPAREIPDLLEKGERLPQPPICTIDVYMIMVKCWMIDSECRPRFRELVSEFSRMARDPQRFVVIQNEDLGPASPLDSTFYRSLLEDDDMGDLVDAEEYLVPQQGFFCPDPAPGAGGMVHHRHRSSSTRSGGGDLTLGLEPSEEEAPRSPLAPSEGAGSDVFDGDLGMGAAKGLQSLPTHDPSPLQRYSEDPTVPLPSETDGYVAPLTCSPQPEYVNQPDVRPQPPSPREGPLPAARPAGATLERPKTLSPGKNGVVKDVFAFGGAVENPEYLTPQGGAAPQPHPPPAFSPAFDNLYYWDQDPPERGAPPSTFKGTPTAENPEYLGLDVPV
Sequence of Vasopressin V1a receptor (P37288 whole entry): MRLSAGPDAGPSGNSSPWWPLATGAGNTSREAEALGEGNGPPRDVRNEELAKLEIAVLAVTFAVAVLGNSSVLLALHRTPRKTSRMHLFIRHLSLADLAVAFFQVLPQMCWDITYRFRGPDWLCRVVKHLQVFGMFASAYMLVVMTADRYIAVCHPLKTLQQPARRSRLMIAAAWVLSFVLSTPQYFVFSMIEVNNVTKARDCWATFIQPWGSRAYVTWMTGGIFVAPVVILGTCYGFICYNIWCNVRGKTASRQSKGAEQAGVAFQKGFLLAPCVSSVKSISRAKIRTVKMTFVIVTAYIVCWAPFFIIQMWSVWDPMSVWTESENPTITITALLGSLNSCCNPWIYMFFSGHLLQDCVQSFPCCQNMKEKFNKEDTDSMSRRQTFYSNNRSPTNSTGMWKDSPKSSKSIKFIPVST
Sequence of Tyrosine-protein kinase Lck (P06239 whole entry): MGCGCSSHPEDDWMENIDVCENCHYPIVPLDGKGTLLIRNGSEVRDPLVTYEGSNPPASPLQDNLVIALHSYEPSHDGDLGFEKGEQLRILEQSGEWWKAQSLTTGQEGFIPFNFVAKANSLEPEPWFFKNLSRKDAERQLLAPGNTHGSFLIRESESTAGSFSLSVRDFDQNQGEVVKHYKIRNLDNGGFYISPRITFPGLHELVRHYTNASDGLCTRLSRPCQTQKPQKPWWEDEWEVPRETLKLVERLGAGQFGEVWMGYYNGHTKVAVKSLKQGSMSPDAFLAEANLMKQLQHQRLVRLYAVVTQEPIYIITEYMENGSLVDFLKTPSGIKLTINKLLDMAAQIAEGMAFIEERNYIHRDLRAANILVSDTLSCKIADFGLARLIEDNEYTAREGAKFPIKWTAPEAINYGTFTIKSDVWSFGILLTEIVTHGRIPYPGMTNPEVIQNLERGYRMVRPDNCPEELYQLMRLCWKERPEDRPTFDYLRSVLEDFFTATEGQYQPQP

CCCSc1ccc2nc(NC(=O)OC)[nH]c2c1 [ALBENDAZOLE]
Not Active: IC50 [1] | IC50 (Vasopressin V1a receptor) | IC50 [2] | Ki [2] | IC50 [3] | Ki [3] | IC50 [4] | IC50 [5] | IC50 (Glucocorticoid receptor) | IC50 [6] | IC50 [7] | IC50 [8] | IC50 [9] | IC50 [10]

OCc1ccccc1 [BENZYL ALCOHOL]
Not Active: IC50 [1] | IC50 (Vasopressin V1a receptor) | IC50 [2] | Ki [2] | IC50 [3] | Ki [3] | IC50 [4] | IC50 [5] | IC50 (Glucocorticoid receptor) | IC50 [6] | IC50 [7] | IC50 [8] | IC50 [9] | IC50 [10]

O=P1(NCCCl)OCCCN1CCCl (stereo not given) [IFOSFAMIDE]
Not Active: IC50 [1] | IC50 (Vasopressin V1a receptor) | IC50 [2] | Ki [2] | IC50 [3] | Ki [3] | IC50 [4] | IC50 [5] | IC50 (Glucocorticoid receptor) | IC50 [6] | IC50 [7] | IC50 [8] | IC50 [9] | IC50 [10]

COCc1c(C(C)C)nc(C(C)C)c(/C=C/[C@@H](O)C[C@@H](O)CC(=O)O)c1-c1ccc(F)cc1 [CERIVASTATIN]
Not Active: IC50 [1] | IC50 (Vasopressin V1a receptor) | IC50 [2] | Ki [2] | IC50 [3] | Ki [3] | IC50 [4] | IC50 [5] | IC50 (Glucocorticoid receptor) | IC50 [6] | IC50 [7] | IC50 [8] | IC50 [9] | IC50 [10]

COc1ccc([C@@H]2Sc3ccccc3N(CCN(C)C)C(=O)[C@@H]2OC(C)=O)cc1 [DILTIAZEM]
Not Active: IC50 [1] | IC50 (Vasopressin V1a receptor) | IC50 [2] | Ki [2] | IC50 [3] | Ki [3] | IC50 [4] | IC50 [5] | IC50 (Glucocorticoid receptor) | IC50 [6] | IC50 [7] | IC50 [8] | IC50 [9] | IC50 [10]

O=c1[nH]cc(F)c(=O)[nH]1 [FLUOROURACIL]
Not Active: IC50 [1] | IC50 (Vasopressin V1a receptor) | IC50 [2] | Ki [2] | IC50 [3] | Ki [3] | IC50 [4] | IC50 [5] | IC50 (Glucocorticoid receptor) | IC50 [6] | IC50 [7] | IC50 [8] | IC50 [9] | IC50 [10]

O=C(O)c1cn(C2CC2)c2cc(N3CCNCC3)c(F)cc2c1=O [CIPROFLOXACIN]
Not Active: IC50 [1] | IC50 (Vasopressin V1a receptor) | IC50 [2] | Ki [2] | IC50 [3] | Ki [3] | IC50 [4] | IC50 [5] | IC50 (Glucocorticoid receptor) | IC50 [6] | IC50 [7] | IC50 [8] | IC50 [9] | IC50 [10]

CC(C)(Oc1ccc(CCNC(=O)c2ccc(Cl)cc2)cc1)C(=O)O [BEZAFIBRATE]
Not Active: IC50 [1] | IC50 (Vasopressin V1a receptor) | IC50 [2] | Ki [2] | IC50 [3] | Ki [3] | IC50 [4] | IC50 [5] | IC50 (Glucocorticoid receptor) | IC50 [6] | IC50 [7] | IC50 [8] | IC50 [9] | IC50 [10]

Nc1nc(=O)[nH]cc1F [FLUCYTOSINE]
Not Active: IC50 [1] | IC50 (Vasopressin V1a receptor) | IC50 [2] | Ki [2] | IC50 [3] | Ki [3] | IC50 [4] | IC50 [5] | IC50 (Glucocorticoid receptor) | IC50 [6] | IC50 [7] | IC50 [8] | IC50 [9] | IC50 [10]

O=C1OCCN1/N=C/c1ccc([N+](=O)[O-])o1 [FURAZOLIDONE]
Not Active: IC50 [1] | IC50 (Vasopressin V1a receptor) | IC50 [2] | Ki [2] | IC50 [3] | Ki [3] | IC50 [4] | IC50 [5] | IC50 (Glucocorticoid receptor) | IC50 [6] | IC50 [7] | IC50 [8] | IC50 [9] | IC50 [10]
